Molecular target: T1, Purine nucleoside phosphorylase (Homo sapiens, UniProt P00491)
T1 sequence (P00491 whole entry): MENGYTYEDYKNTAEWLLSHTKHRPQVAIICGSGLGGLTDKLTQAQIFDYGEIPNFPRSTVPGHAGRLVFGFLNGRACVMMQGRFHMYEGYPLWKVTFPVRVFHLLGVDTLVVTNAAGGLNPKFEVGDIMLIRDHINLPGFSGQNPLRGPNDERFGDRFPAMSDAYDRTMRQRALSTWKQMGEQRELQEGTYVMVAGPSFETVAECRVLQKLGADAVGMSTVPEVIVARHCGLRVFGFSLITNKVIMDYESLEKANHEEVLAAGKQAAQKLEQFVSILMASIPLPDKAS
Experiment: Inhibtion Assay
Text: Inhibition assay using human PNP.

- Kd: 0.383 nM
Compound: O=c1[nH]cnc2c(CN3CCC(O)C3)c[nH]c12 (stereo unspecified) [Immucillins, 11]

From BindingDB's records for doi:10.1021/bi9005896 (Albert Einstein College of Medicine, 2009)
